Reference: patent US10647680B2, “Urea compound, preparation method therefor and medical use thereof” (Ancureall Pharmaceutical (Shanghai) Co., Ltd., priority 2016, dated 2020)

Experiments:
Assay type in all cases: cell-based
HL-60 (FLT3 wild type) = test: In vitro growth inhibition (GI50), HL-60; conditions: Homo sapiens, Cell lines of leukemia, read-out: GI 50 HL60 FLT3 (WT)
Summary of the method: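 After 3–5 days of treatment (top concentration 5,000 nM, serially diluted 2- or 10-fold to 0.01 nM, solvent ≤1%), viability was read by CCK8 at OD450. Growth rate was normalised to the time-zero and solvent-control wells, and GI50 was derived from the curve. Cultures in RPMI1640 + 10% FBS.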

[1] = test system: K562 (FLT3 negative expression, positive expression of BCR-ABL fusion protein); test: In vitro growth inhibition (GI50), K562; conditions: Homo sapiens, Cell lines of leukemia, read-out: GI 50 K562 BCR-ABL
NCI-H1581 (FGFR1 amp) = test: In vitro growth inhibition (GI50), NCI-H1581; conditions: Homo sapiens
Excerpt: Tumor cell line is an effective cell model for studying the inhibition of tumor cell growth or proliferation in vitro. In the present invention, a representative tumor cell line was selected to determine the cell growth inhibition activity of the present compound. All cell lines used were from ATCC, DSMZ, and the Cell Bank of the Chinese Academy of Sciences. Cell culture conditions and methods were in accordance with the requirements of each cell line. Cells were subcultured in vitro for no more than 3 passages each time, and as required, single-clone purification and identification of cell lines could be carried out.
The cell culture media used were RPMI1640 (Gibco), MEM (Gibco), McCOY'S5A (Gibco), and IMDM (Gibco). The complete medium was prepared by supplement with 5˜20% fetal calf serum (Gibco), 1% double-antibiotics (10000 units/mL penicillin and 10000 units/mL), 2 mM glutamine or 1 mM sodium pyruvate, respectively.
Human non-small cell lung cancer cell NCI-H1581 (FGFR1 amp, ATCC) is an FGFR1 gene amplified/overexpressed tumor cell line. It was cultured in complete medium comprising 1×RPMI1640 with 10% FBS.
Adherent cells were digested with 0.25% pancreatin-EDTA (Gibco). The suspension cells were collected by centrifugation. The supernatant was discarded and the cell pellet was resuspended and counted. Different cell concentrations (5˜10×10^4 cells/mL) were prepared according to the growth cycle of each cell line and then seeded on a 96-well plate (Corning), 100 μL/well. The cells were incubated overnight at 37° C., 5% CO2. The compounds were added to the cells on the second day with 2 wells in parallel. The final concentration of organic solvent shall not exceed 1%. The cells were continually incubated for 3 to 5 days, and then subjected to MTT assay.
The compound of the present invention and the control compound were dissolved in DMSO (Sigma) respectively, with the purity of more than 98%. The compound was stored in a concentration of 10 mM at −20° C. and diluted to 2- or 10-fold series prior to use.
Dojindo CCK8 reagent kit was used as MTT assay. THERMO […] FC meter was used as microplate reader.
For adherent cells, culture medium was removed and immediately replaced with the fresh prepared medium which contains 10% CCK8 reagent (100 μL/well). For the suspension cells, CCK8 was directly added to 10% of the final concentration. The cells were continually incubated for 1˜4 h. When a dark yellow color could be observed in the solvent control wells, the absorbance value at OD450 nm was measured and the cell growth rate was calculated according to the following formula: Cell Growth Rate (%)=100*(T−T0)/(C−T0) T=optical density of drug treatment cell well—optical density of blank control well; T0=optical density of cell well before drug treatment—optical density of blank control well; C=optical density of cell well of solvent control group—optical density of blank control well. The concentration value of 50% inhibition of cell growth (GI50) was calculated according to the drug concentration and cell growth rate curve. The experiment was independently repeated 1˜3 times, and subject to biological statistical analysis. 4. Experimental Results
Tumor cell growth inhibition test was performed by selecting representative compounds (compounds 4, 11, 12, 16, 27, 68, 71, 77, 79, 89 and 116 of the present invention). The initial concentration of the compound was 5,000 nM, then it was serially diluted by 2-fold or 10-fold to 0.01 nM. The GI50 value of each test compound was calculated according to the GI50 assay and calculation method. The experiments were repeated 1 to 3 times, and data were subjected to biological statistical analysis.

GI50 (HL-60 (FLT3 wild type)) [µM]	GI50 [1] [µM]	GI50 (NCI-H1581 (FGFR1 amp)) [µM]	Structure (SMILES)
0.1 to 1	> 1	> 2.5	CC(C)(C)c1cc(NC(=O)Nc2ccc(-n3cnc4ccc(OCCN5CCOCC5)cc43)cc2)no1 [Compound 27, 1-(5-tert-butyl-isoxazol-3-yl)-3-{4-[6-(2morpholin-4-yl-ethoxyl)-benzimidazol-1-yl]-phenyl}-urea]
> 1	> 1	> 2.5	CC(C)(C)c1cc(NC(=O)Nc2ccc(-n3cnc4cc(OCCO)ccc43)cc2)no1 [Compound 11, 1-(5-tert-butyl-isoxazol-3-yl)-3-{4-[5-(2-hydroxy-ethoxyl)-benzimidazol-1-yl]-phenyl]-urea]
> 1	> 1	> 2.5	CC(C)(C)c1cc(N)n(C(=O)Nc2ccc(-n3cnc4ccccc43)cc2)n1 [Compound 116, 5-amino-3-tert-butyl-pyrazol-1-carboxylic acid (4-benzimidazol-1-yl-phenyl)-amide]
> 1	> 1	> 2.5	CC(C)(C)c1cc(NC(=O)Nc2ccc(-n3cnc4cc(OCCN5CCOCC5)ccc43)cc2)no1 [Compound 16, 1-(5-tert-butyl-isoxazol-3-yl)-3-{4-[5-(2-morpholin-4-yl-ethoxyl)-benzimidazol-1-yl]-phenyl}-urea]
> 1	> 1	> 2.5	CC(C)(C)c1cc(NC(=O)Nc2ccc(-n3cnc4ccccc43)cc2)[nH]n1 [Compound 68, 1-(4-benzimidazol-1-yl-phenyl)-3-(5-tert-butyl-2H-pyrazol-3-yl)-urea]
> 1	> 1	> 2.5	CC(C)(C)c1cc(NC(=O)Nc2ccc(-n3cnc4cc(OCCN5CCOCC5)ccc43)cc2)[nH]n1 [Compound 89, 1-(5-tert-butyl-2H-pyrazol-3-yl)-3-{4-[5-(2-morpholin-4-yl-ethoxyl)-benzimidazol-1-yl]-phenyl}-urea]
> 1	> 1	> 2.5	COc1ccc2c(c1)ncn2-c1ccc(NC(=O)Nc2cc(C(C)(C)C)n[nH]2)cc1 [Compound 71, 1-(5-tert-butyl-2H-pyrazol-3-yl)-3-[4-(5-methoxyl-benzimidazol-1-yl)-phenyl]-urea]
0.1 to 1	0.1 to 1	> 2.5	CC(C)(C)c1cc(NC(=O)Nc2ccc(-n3cnc4cc(O)ccc43)cc2)no1 [Compound 4, 1-(5-tert-butyl-isoxazol-3-yl)-3-[4-(5-hydroxy-benzimidazol-1-yl)-phenyl]-urea]
> 1	> 1	> 2.5	CC(C)(C)c1cc(NC(=O)Nc2ccc(-n3cnc4cc(OCCO)ccc43)cc2)[nH]n1 [Compound 79, 1-(5-tert-butyl-2H-pyrazol-3-yl)-3-{4-[5-(2-hydroxy-ethoxyl)-benzimidazol-1-yl]-phenyl]urea]

Structure (SMILES)	GI50 (HL-60 (FLT3 wild type)) [µM]	GI50 [1] [µM]	GI50 (NCI-H1581 (FGFR1 amp)) [µM]
COCCOc1ccc2c(c1)ncn2-c1ccc(NC(=O)Nc2cc(C(C)(C)C)n[nH]2)cc1 [Compound 77, 1-(5-tert-butyl-2H-pyrazol-3-yl)-3-{4-[5-(2-methoxyl-ethoxyl)-benzimidazol-1-yl]-phenyl}-urea]	> 1	> 1	> 2.5
